The record followed here is patent US6716829B2, “Aldosterone antagonist and cyclooxygenase-2 inhibitor combination therapy to prevent or treat inflammation-related cardiovascular disorders” (Pharmacia Corporation, priority 2000, dated 2004).

The experiment has as its system marker proteins (osteopontin, ED-1, CD-3, ICAM-1, VCAM-1). The experiment is described as follows: Assay C: immunohistochemistry of myocardial tissue (osteopontin, ED-1, CD-3, ICAM-1, VCAM-1). The following applies: aldosterone + salt treated rats; eplerenone 100 mg/kg/day. The format is in vivo, Male Sprague-Dawley rats. The protocol:
The procedure of Assay B was expanded upon in a further study. […] Myocardial tissue from animals in each treatment group was examined after 7, 14, or 30 days of treatment. […] Lesions were preceded by the expression and progressive upregulation of proinflammatory molecules.
Potassium chloride supplementation was added to the saline solution in order to prevent the potential hypokalemia associated with aldosterone excess.
At the time of the surgery, an Alzet 2002 osmotic minipump (Alza Corp., Palo Alto, Calif.) containing either vehicle (9% ethanol/87% propylene glycol/4% dH2O) or 1.0 mg/mL d-aldosterone (Sigma Chemical, St. Louis, Mo.) was inserted subcutaneously at the nape of the neck. Aldosterone was administered at a dose of 0.75 µg/hour. […] Animals were sacrificed from each group (n=8-13) after 7, 14, or 30 days of treatment.
The equatorial regions of the heart were routinely processed into paraffin with an automated tissue processor (Hypercenter XP, Shandon/Lipshaw Inc., Pittsburgh, Pa.) and embedded into fresh paraffin apical side down (Shandon Embedding Center, Shandon/Lipshaw Inc.). Five and 10 µm sections were cut from each block of tissue using a Leica RM2035 rotary microtome (Leica Inc., Houston, Tex.) and mounted on Superfrost/Plus microscope slides (Fisher Scientific, Pittsburgh, Pa.). […]

On to `COC(=O)[C@@H]1CC2=CC(=O)CC[C@]2(C)[C@@]23O[C@@H]2C[C@@]2(C)[C@@H](CC[C@@]24CCC(=O)O4)[C@H]13` [Eplerenone], for which the “Staining in myocardial tissue for marker proteins (immunohistochemistry)” value is “markedly blunted”. Turning to `C[C@]12CCC(=O)C=C1CC[C@@H]1[C@@H]2[C@@H](O)C[C@]2(C=O)[C@@H](C(=O)CO)CC[C@@H]12` [Aldosterone], the “Staining in myocardial tissue for marker proteins (immunohistochemistry)” value was “Significant expression of osteopontin”.
